According to patent US12661354B2, “DRG-MDM2-4 for use as a novel mouse double minute 2 (MDM2) inhibitor” (BAHCESEHIR UNIVERSITESI, priority 2020, dated 2026):
Where two headings read alike, the source gives them in different places.

What was measured:
HCT-116 cells = assay: Microscopic evaluation of HCT-116 cells; assay type: cell-based
Source text: Cells were photographed and observed under microscope for three days.
As a result, cell viability decreased by 40% at the end of the first day and reached 60% at the end of the third day. Any cell proliferation change and apoptotic cell morphology were not observed in the untreated and vehicle groups. Moreover, differences in cell morphology were also observed.

MDA-MB231 cell lines = assay: MTT cell viability assay (IC50); assay type: cell-based; details: Homo sapiens, MDA-MB-231; MDA-MB231, single dose of treatment, 10^−9 to 10^−4 M, 570 nm absorbance
Protocol: (§1) HCT 116 colon cancer and MDA-MB231 breast cancer cell lines are used in cell culture experiments.
(§2) Cells were treated with high-glucose DMEM medium (Biosera) supplemented with 10% FBS (Gibco) and 1× penicillin/streptomycin (Multicell). The assay was designed to contain 10,000 cells for each well of 24-well cell culture plates before being treated with inhibitors.
(§3) Compound of formula I was dissolved with DMSO as 20 mM stock. 24 hours later, the solution was diluted in DMEM with 10% FBS and final concentration of vehicle DMSO was 0.5% at maximum. Therefore, the vehicle group included 0.5% DMSO concentration in experiments. Intensive cultivation of cells causes a decrease in proliferation capacity.
The MTT cell viability assay was used to detect values of half-maximal inhibitory concentration (IC50). Different concentrations of compound of formula I ranging between 10^−9 to 10^−4 M were tested on MDA-MB231 cell lines with single dose of treatment. 570 nm absorbance values were recorded and IC50 values were calculated by dose response-inhibition curves and nonlinear regression analysis on Graphpad Prism 8 software. IC50 value of compound of formula I was determined to be 24 μm (FIG. 1).

[1] = tested on: HCT 116 colon cancer and MDA-MB231 breast cancer cell lines; assay: MTT cell proliferation assay; assay type: cell-based; details: for cytotoxicity at 100 µM: read-out: cell viability decreased
Protocol: as §1, §2, §3
For proliferation inhibition analysis, cells were seeded in 24 well plates at 1×10^4 cells/well cells overnight without drug treatment. During the cell proliferation experiments, we performed five days of treatment in each cell line and repeated the experiments three times to check each experiment. No significant difference in cell viability was observed after the third day. Therefore, cells with different drug concentrations were treated for two days. After 48 hours, MTT was applied to the cells and incubated at 37° C. for 4 hours, formazan was solubilized with DMSO (Sigma-Aldrich, St. Louis, USA) and absorbance was measured at 570 nm.
Molecule concentration was 100 μM, the lower concentrations were not shown. Vehicle represents the groups treated with only %0,5 DMSO and Untreated represents no molecule treated group. Molecule responses were evaluated by cell viability which is obtained by spectrophotometric analysis of cells upon MTT treatment at 12 h, 24 h, 48 h and 72 h. […] Statistical significance in graphs was determined by comparing each treatment group with DMSO control using ANOVA testing and significance is considered as p<0.001 (FIG. 2).

MDM2 protein = MDM2 protein (Homo sapiens, UniProt Q00987); details: MDM2 protein versus natural p53 peptide; cited from earlier work
Chain of MDM2 protein (Q00987 whole entry, species assumed): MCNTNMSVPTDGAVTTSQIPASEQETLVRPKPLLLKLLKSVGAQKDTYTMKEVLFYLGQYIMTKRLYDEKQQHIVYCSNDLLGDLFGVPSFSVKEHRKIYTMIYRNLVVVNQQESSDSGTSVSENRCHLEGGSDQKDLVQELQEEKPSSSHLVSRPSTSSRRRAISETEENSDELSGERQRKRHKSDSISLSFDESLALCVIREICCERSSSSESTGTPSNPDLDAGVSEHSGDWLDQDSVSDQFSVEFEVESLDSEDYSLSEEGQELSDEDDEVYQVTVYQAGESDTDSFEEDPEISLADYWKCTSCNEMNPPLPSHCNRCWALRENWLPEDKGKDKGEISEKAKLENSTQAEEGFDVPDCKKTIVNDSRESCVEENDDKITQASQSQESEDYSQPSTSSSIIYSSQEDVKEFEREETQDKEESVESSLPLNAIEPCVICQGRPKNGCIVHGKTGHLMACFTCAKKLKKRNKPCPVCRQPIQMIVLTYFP

| Compound | morphology of apoptotic cells, onset (HCT-116 cells; 100 μM concentration) | apoptotic activity, onset (HCT-116 cells; HCT-116, microscopy) | proliferation and cell structures under microscope (HCT-116 cells; HCT-116, observed for three days, versus vehicle and untreated) | IC50 (MDA-MB231 cell lines) | cell viability compared to vehicle and untreated groups ([1]; 100 μM, 12 h, 24 h, 48 h and 72 h, ANOVA, p<0.001) | cytotoxicity at 100 µM ([1]; end of the first day) | cytotoxicity at 100 µM ([1]; end of the third day) | binding affinity relative to natural p53 peptide (MDM2 protein) |
| --- | --- | --- | --- | --- | --- | --- | --- | --- |
| Cc1cc(=O)c(C(=O)NCCc2c[nH]c3ccccc23)nn1-c1cccc(C(F)(F)F)c1 [compound of formula I] | cells having the morphology of apoptotic cells were observed starting from the 3rd hour | clear apoptotic activity from the twelfth hour | reduced proliferation and showed apoptotic cell structures | 24 µM | statistically significant difference | 40% | 60% |  |
| MI-319 |  |  |  |  |  |  |  | 500 fold |
